Laboratory results published in patent US20040097439A9, “Isolated polynucleotides having a reduced or an increased content of epigenetic control motifs and uses thereof” (priority 1999, published 2004).

System: histone deacetylases
Assay: Relief of repressed LacZ transgenes in cleavage stage embryos by inhibitors of histone deacetylases
Format: cell-based, mouse
Settings: for proportion of β-gal+ embryos after NaB treatment: repressed paternal transgene; for release from repression of LacZ transgenes in treated embryos: DCR6 and DCR7 2-cell embryos, NaB 2.5 mM or TSA 66 nM for 24 h
Procedure: One-cell embryos from different lines, carrying a transgene of maternal (A) or paternal (B) origin were recovered at 24 hphCG and allowed to develop in the absence (control) or presence of sodium butyrate (NaB; 2.5 mM) or trichostatin A (TSA; 66 nM) for 24 h. Aphidicolin, an inhibitor of DNA polymerases was used alone (Aph; 2 μg/ml) or in combination with sodium butyrate (Aph+NaB).
It is becoming more and more evident that at least part of the transcriptional repression dependent on methylated CpG islands is mediated by histone deacetylation. […] To test whether this mechanism could be responsible for the non-permissive transcriptional state established during gametogenesis and inherited by the embryo, cleavage stage embryos were treated with the deacetylase inhibitors, sodium butyrate (NaB) and the trichostatin A (TSA), two inhibitors of histone deacetylases (Yoshida et al., 1995).

CCCC(=O)[O-].[Na+] [NaB, sodium butyrate]
proportion of β-gal+ embryos after NaB treatment (DCR1 line, 3% β-gal+ in untreated embryos): 70%
proportion of β-gal+ embryos after NaB treatment (DCR3 line, 18% β-gal+ in untreated embryos): 100%
proportion of β-gal+ embryos after NaB treatment (DCR5 line, 0% β-gal+ in untreated embryos): 10%
release from repression of LacZ transgenes in treated embryos: release from repression

CC(/C=C/C(=O)NO)=C\[C@@H](C)C(=O)c1ccc(N(C)C)cc1 [TSA, trichostatin A]
release from repression of LacZ transgenes in treated embryos: release from repression
